The source of these data is US7641914B2, “Acid-sensitive compounds, their preparation and uses” (Gencell, S.A., priority 2000, dated 2010).

Data set [1] relates to DNA. The data set is described as follows: Ethidium bromide fluorescence test of DNA compaction and release in acidic medium. Format: physicochemical. Particulars: for variation in fluorescence over time (EtBr) / release of DNA over time (increase in EtBr fluorescence): pH 5, 37° C.; for variation in fluorescence over time (EtBr): 0.4 nmol lipid/pg of DNA, DNA not completely compacted; for release of DNA over time (increase in EtBr fluorescence): 1.7 and 6.0 nmol lipid/μg of DNA, complete compaction. As to the method: This was easily shown by a fluorescence test with ethidium bromide (EtBr): the absence of fluorescence reflects the absence of free DNA, that means that the DNA was compacted.
The DNA was brought into contact with increasing quantities of control cationic lipid or of acid-sensitive compound A Syn or Trans, by mixing an equal volume of lipid solutions of different titers with the DNA solutions. Samples of 800 μl of DNA complexes having a concentration of […] were thus prepared in a sodium chloride solution at 150 mM with increasing quantities of control cationic lipid or of acid-sensitive compound A Syn or Trans.
At time t=0, 200 μl of buffer having a concentration of 0.1 mol/l at pH 5 were added to these samples and the samples were stored in an oven at 37° C. The fluorescence with ethidium bromide (EtBr) was measured over time (measurement at 20° C.) using a FluoroMax-2 (Jobin Yvon-Spex), with excitation and emission wavelengths of 260 nm and 590 nm respectively. The slit widths for excitation and for emission were set at 5 nm. The fluorescence value was recorded after addition of 3 μl of ethidium bromide at 1 g/l per ml of DNA/cationic lipid or DNA/acid-sensitive compound solution (at 0.01 mg of DNA/ml).

Data set [2] deals with HeLa cells. The data set is described as follows: In vitro transfection of HeLa cells, luciferase activity. It counts as cell-based, human. The settings on record: charge ratios 1.0 to 10.0 nmol lipid/μg DNA. As to the method:
This study was carried out at 4 different charge ratios: 1.0 or 4.0 or 6.0 or 10.0 nmol of lipid/μg of DNA. Each of these conditions was tested with and without fetal calf serum (A+ or − Serum a))
Culture of the cells: HeLa cells (American Type Culture Collection (ATCC) Manassas, Va., USA) derived from a human cervical epithelium carcinoma, were cultured in the presence of a medium of the MEM (“minimum essential medium”) type with addition of 2 mM L-glutamine, 50 units/ml of penicillin, and 50 units/ml of streptomycin. The medium and the additives were obtained from Gibco/BRL Life Technologies/InvitroGen (Gaithersburg, Md., USA). The cells were cultured in flasks at 37° C. and at 5% carbon dioxide in an incubator. […]
An aliquot of 10 μl of supernatant of the lysate centrifuged (12,000×g) for 5 minutes at 4° C. was measured with the Wallac Victor2 luminometer (1420 Multilabel counter).
The luciferase activity was assayed by the emission of light in the presence of luciferin, of coenzyme A and of ATP for 10 seconds and expressed relative to 2000 treated cells. The luciferase activity was thus expressed as Relative Light Unit (“RLU”) and normalized with the concentration of proteins in the sample obtained using a Pierce BCA kit (Rockford, Ill., USA).

As for `CCCCCCCCCCCCCCCCCCN(CCCCCCCCCCCCCCCCCC)C(=O)CCCOC1OCC(CNC(=O)CNCCCNCCCCNCCCN)O1` (stereo not drawn) [Compound A Syn, 4-{4-[(2-{3-[4-(3-amino-propylamino)butylamino]propyl-amino}acetylamino)methyl]-[1,3]dioxolan-2-yloxy}-N,N-dioctadecylbutyramide tetraacetate], in data set [1], the “variation in fluorescence over time (EtBr)” value is listed as “no significant variation in fluorescence” and the “release of DNA over time (increase in EtBr fluorescence)” value is recorded as “released the DNA over time”. Moreover, in data set [1] (pH 5 and 37° C.), the “time of release of DNA after the addition of acid” value is “a few hours”. Moreover, the transfection activity entry in data set [2] was “high transfection activity”.
Consider `CCCCCCCCCCCCCCCCCCN(CCCCCCCCCCCCCCCCCC)C(=O)CNC(=O)CNCCCNCCCCNCCCN` [control cationic lipid, H2N—(CH2)3—NH—(CH2)4—NH—(CH2)3—NH—CH2—CO-Gly-N[(CH2)17—CH3]2, reference compound], for which, in data set [1], the “variation in fluorescence over time (EtBr)” value is recorded as “no significant variation in fluorescence” and the “release of DNA over time (increase in EtBr fluorescence)” value is “not the case”. Moreover, the transfection activity result in data set [2] was “high transfection activity”.
